In article PMC7462607 (eLife, 2020):
“And” between values parts separate entries of the source, which are not always exact repeats. Equal entries are not always repeated.

What was measured:
CCNK = assay: In vivo polyubiquitination of CCNK (HEK293T); type: cell-based, Homo sapiens; settings: wild-type CDK12 co-expressed
Procedure: Wild-type and G731E/R ORFs of 3 × FLAG-CDK12, either full length or the kinase domain (from resides 715–1052), were cloned into the pCDNA3.1-N-3xFLAG vector. An ORF encoding CCNK (NM_001099402.2) was PCR amplified with A549 cDNA and cloned into a pCDNA3.1-C-3xHA vector. pCMV-8 ×His Ub was a gift from Dr. William Kaelin at Dana Farber Cancer Institute of Harvard. To set up cells for the in vivo ubiquitination assay, 0.6 million HEK293T cells were seeded per well in six-well tissue-culture plates. After overnight attachment, these cells were transfected with 500 ng of pCMV 8 × His Ub, 25 ng of pCDNA3.1-CCNK-3xHA, and 50 ng of pCDNA3.1-3xFLAG-CDK12. Two days later, cells were pretreated with 1 µM of bortezomib for 2 hr, followed by treatment with DMSO or three doses of HQ461 (1, 3, 10 µM) for 4 hr. Cells from each well were rinsed once with DPBS and lysed in 500 μL of buffer 1 (25 mM Tris-HCl, pH 8.0, 8 M urea, 10 mM imidazole) freshly supplemented with one units/µL of benzonase and 1x cOmplete, Mini, EDTA-free protease inhibitor cocktail (Roche, Bazel, Switzerland). Lysates were clarified by spinning at 15,000 xg at 4°C for 10 min. Clarified lysate of each sample was mixed with 10 µL of Ni NTA magarose beads (SMART Life Sciences, Changzhou, China, SM00801) prewashed with lysis buffer. […]

[1] = target: T1, FLAG-Avi-DDB1 and His-CDK12KD/His-CCNKΔC (WT) (Homo sapiens, UniProt Q9NYV4); assay: AlphaScreen assay, WT; type: binding; settings: for AlphaScreen: raw signal
T1 construct: Human CDK12KD (residues 715–1052); made in house; host or cells: Sf9 or High Five (CDK12KD/CCNKΔC, co-infected with yeast CAK1); 293F with BirA (FLAG-Avi-DDB1)
Procedure: Biotinylated FLAG-Avi-DDB1 (3 µM) and 6xHis-CDK12KD/6xHis-CCNKΔC (WT or G731E/R mutants) (3 µM) were mixed in an assay buffer (50 mM HEPES, pH7.5, 300 mM NaCl, 0.5 mM TCEP, 0.1% NP-40, 0.1% BSA) and a serial dilution of HQ461.The protein-compound mix was transferred to 384-well plates (Corning, Corning, USA); 15 μL per well. After a 1 hr room temperature incubation, 10 µL of nickel chelate (Ni-NTA) acceptor beads (PerkinElmer, Waltham, USA, Waltham, USA, 6760619C) (1:100 diluted with assay buffer) was added per well. After incubation in the dark for 1 hr at room temperature, 10 μL of streptavidin donor beads (PerkinElmer, Waltham, USA, 6760619C) (1:100 diluted in assay buffer) was added per well. After another 1 hr incubation, AlphaScreen signal was measured on the EnVision multimode plate reader (PerkinElmer, Waltham, USA). For THZ531 competition, FLAG-Avi-DDB1, 6xHis-CDK12KD/6xHis-CCNKΔC mix was preincubated with 5 μM of THZ531 for 30 min on ice followed by the procedures described above.

[2] = system: CDK12KD/CCNKΔC (WT or G731E/R); assay: Nano DSF; type: binding, human; settings: increasing concentrations of HQ461
Procedure: CDK12KD/CCNKΔC (WT or G731E/R) or DDB1ΔBPB were diluted with DSF assay buffer (50 mM HEPES pH 7.5, 300 mM NaCl, 0.5 mM TCEP) to 3.6 µM and mixed with diluted HQ461 (final DMSO concentration 2%). Tryptophan fluorescence was measured using Tycho NT.6 (NanoTemper, South San Francisco, USA). During the thermal shift experiment, temperature was increased from 35°C to 95°C and fluorescence was scanned at 350 nm and 330 nm. Ti (inflection temperature of the unfolding transition) was calculated from the 350 nm/330 nm ratio.

T1 sequence (Q9NYV4 715-1052 limits assumed, stated change not applied): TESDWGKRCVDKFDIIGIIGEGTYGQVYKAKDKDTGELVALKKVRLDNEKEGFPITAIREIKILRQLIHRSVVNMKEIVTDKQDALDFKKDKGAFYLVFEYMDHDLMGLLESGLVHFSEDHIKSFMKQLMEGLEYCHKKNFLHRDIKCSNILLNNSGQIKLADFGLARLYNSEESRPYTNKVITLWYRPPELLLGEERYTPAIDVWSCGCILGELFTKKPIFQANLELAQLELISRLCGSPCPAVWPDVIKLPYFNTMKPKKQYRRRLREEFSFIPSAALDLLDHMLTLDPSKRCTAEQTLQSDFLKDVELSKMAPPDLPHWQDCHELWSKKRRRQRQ
T1 sequence (O75909 11-267 partner limits assumed): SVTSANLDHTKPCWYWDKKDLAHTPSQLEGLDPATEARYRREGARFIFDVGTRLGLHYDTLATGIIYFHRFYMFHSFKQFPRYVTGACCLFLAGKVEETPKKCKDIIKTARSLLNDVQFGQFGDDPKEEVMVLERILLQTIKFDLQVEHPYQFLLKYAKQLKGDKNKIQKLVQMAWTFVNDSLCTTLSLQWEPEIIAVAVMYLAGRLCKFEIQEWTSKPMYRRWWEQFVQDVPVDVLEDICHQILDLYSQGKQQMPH
T1 sequence (Q16531 whole entry partner, the tested form may be a part): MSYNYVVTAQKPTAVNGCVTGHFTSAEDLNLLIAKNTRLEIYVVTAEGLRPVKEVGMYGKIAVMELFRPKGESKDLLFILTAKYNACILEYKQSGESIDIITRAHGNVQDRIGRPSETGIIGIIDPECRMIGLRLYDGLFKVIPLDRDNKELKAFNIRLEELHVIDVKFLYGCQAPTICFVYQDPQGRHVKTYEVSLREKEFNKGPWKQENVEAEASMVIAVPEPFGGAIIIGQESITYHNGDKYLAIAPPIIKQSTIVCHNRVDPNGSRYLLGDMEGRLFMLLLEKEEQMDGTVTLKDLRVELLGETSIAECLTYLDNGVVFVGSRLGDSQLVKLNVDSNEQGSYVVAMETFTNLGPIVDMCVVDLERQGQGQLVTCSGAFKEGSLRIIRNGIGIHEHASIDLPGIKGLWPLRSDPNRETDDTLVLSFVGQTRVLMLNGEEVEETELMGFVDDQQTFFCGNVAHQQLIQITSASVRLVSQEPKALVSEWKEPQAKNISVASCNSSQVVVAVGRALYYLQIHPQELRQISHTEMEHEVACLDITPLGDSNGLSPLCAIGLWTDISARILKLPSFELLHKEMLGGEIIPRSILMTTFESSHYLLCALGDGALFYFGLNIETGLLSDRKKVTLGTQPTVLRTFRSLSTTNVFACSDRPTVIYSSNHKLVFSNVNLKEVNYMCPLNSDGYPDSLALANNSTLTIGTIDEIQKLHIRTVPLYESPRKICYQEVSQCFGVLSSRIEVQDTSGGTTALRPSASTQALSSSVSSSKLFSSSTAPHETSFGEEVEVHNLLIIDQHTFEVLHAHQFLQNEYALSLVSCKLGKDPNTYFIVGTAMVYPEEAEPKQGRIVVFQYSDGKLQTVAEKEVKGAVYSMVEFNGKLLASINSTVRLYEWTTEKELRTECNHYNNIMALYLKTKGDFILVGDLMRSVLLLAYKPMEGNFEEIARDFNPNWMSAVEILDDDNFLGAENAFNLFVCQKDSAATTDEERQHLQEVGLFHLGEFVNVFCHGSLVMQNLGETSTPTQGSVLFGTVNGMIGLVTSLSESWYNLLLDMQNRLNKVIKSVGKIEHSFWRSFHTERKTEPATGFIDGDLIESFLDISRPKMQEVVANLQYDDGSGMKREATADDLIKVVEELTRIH

## Cc1cccc(Nc2nc(CC(=O)Nc3ncc(C)s3)cs2)n1 [HQ461, 2-(2-((6-methylpyridin-2-yl)amino)thiazol-4-yl)-N-(5-methylthiazol-2-yl)acetamide]
CCNK
  CCNK polyubiquitination in cells: increased CCNK polyubiquitination
[1]; WT + 5 µM THZ531, HQ461 2.22e-6 M
  AlphaScreen: 1078 and 1062 and 921
[1]; WT + 5 µM THZ531, HQ461 6.67e-6 M
  AlphaScreen: 1168 and 926 and 865
[1]; WT + 5 µM THZ531, HQ461 2e-5 M
  AlphaScreen: 1307 and 1119 and 970
[1]; WT + 5 µM THZ531, HQ461 2.47E-07 M
  AlphaScreen: 1065 and 1007 and 926
[1]; WT + 5 µM THZ531, HQ461 2.74E-08 M
  AlphaScreen: 1128 and 949 and 821
[1]; WT + 5 µM THZ531, HQ461 7.41E-07 M
  AlphaScreen: 1120 and 993 and 799
[1]; WT + 5 µM THZ531, HQ461 8.23E-08 M
  AlphaScreen: 1054 and 1033 and 906
[1]; WT, HQ461 2.22e-6 M
  AlphaScreen: 11213 and 9188 and 8788
[1]; WT, HQ461 6.67e-6 M
  AlphaScreen: 16665 and 12816 and 13014
[1]; WT, HQ461 2e-5 M
  AlphaScreen: 20710 and 15836 and 15276
[1]; WT, HQ461 2.47E-07 M
  AlphaScreen: 4781 and 3382 and 3265
[1]; WT, HQ461 2.74E-08 M
  AlphaScreen: 2625 and 1724 and 1469
[1]; WT, HQ461 7.41E-07 M
  AlphaScreen: 7377 and 5649 and 5718
[1]; WT, HQ461 8.23E-08 M
  AlphaScreen: 2916 and 2037 and 1777
[1]; WT, read-out: apparent EC50 of CDK12KD/CCNKΔC/DDB1 complex formation
  EC50: 1900 nM
[2]
  Tm of CDK12KD/CCNKΔC wild type or G731E/R mutants: increased in an HQ461 concentration-dependent manner
